39 substances from patent publication US11214803B2, “Modulators of YAP1 expression” (Ionis Pharmaceuticals, Inc., priority 2019, dated 2022) can be followed below.

Strand notation (5' to 3'): a small letter for the sugar, then the base; units joined by * are phosphorothioate-linked, units joined directly phosphodiester-linked; [ ] holds rarer units or linkages, { } end groups; capitals alone tell only the bases. k = constrained ethyl (cEt); [5mC] = 5-methylcytosine; d = 2'-deoxy (DNA)

For one data set, the system named is Yap1 mRNA. As to the kind of experiment: Antisense inhibition of human Yap1 in A-431 cells by cEt gapmers, single dose (Example 3, RTS36584). In kind it is cell-based. Particulars: Table 8; A-431 cells, 5,000 cells per well, free uptake, 2,000 nM, approximately 48 hours; RTS36584; normalized to RIBOGREEN; Yap1 mRNA relative to untreated control cells. Here is the method:
Modified oligonucleotides were designed to target a Yap1 nucleic acid and were tested for their effect on Yap1 mRNA level in vitro. The modified oligonucleotides were tested in a series of experiments that had similar culture conditions. Cultured A-431 cells at a density of 5,000 cells per well were treated using free uptake with 2,000 nM of modified oligonucleotide. After a treatment period of approximately 48 hours, RNA was isolated from the cells and Yap1 mRNA levels were measured by quantitative real-time RTPCR. Human primer probe set RTS36584 (forward sequence […], designated herein as SEQ ID NO.: 14; reverse sequence […], designated herein as SEQ ID NO.: 15; probe sequence […], designated herein as SEQ ID NO.: 16) was used to measure mRNA levels. Yap1 mRNA levels were normalized to total RNA content, as measured by RIBOGREEN®. Results are presented in the tables below as percent control of the amount of Yap1 mRNA relative to untreated control cells (% UTC). The modified oligonucleotides with percent control values marked with an asterisk (*) target the amplicon region of the primer probe set. Additional assays may be used to measure the potency and efficacy of the modified oligonucleotides targeting the amplicon region.
The newly designed modified oligonucleotides in the Tables below were designed as 3-10-3 cEt gapmers. The gapmers are 16 nucleosides in length, wherein the central gap segment comprises of ten 2′-deoxynucleosides and is flanked by wing segments on the 5′ direction and the 3′ direction comprising three nucleosides each. Each nucleoside in the 5′ wing segment and each nucleoside in the 3′ wing segment has a cEt sugar modification. The internucleoside linkages throughout each gapmer are phosphorothioate (P═S) linkages. All cytosine residues throughout each gapmer are 5-methylcytosines.
“Start site” indicates the 5′-most nucleoside to which the gapmer is targeted in the human gene sequence. “Stop site” indicates the 3′-most nucleoside to which the gapmer is targeted human gene sequence. […] Activity of the modified oligonucleotide may be defined in a different experiment.
Regarding “958412 (antisense kA*k[5mC]*k[5mC]*dT*dT*dT*dA*d[5mC]*d[5mC]*dA*dA*dA*dA*k[5mC]*kG*kA) [Compound 958412]”, the “YAP1 (% UTC)” value worked out at 49 % UTC.
Same read-out and setting: as for “958413 (antisense k[5mC]*kT*kA*dG*dT*dA*dA*dT*d[5mC]*dT*dT*dA*d[5mC]*kT*kG*kG) [Compound 958413]”, the figure is 80 % UTC.
On to “958414 (antisense k[5mC]*kA*kG*dA*dA*dT*dT*d[5mC]*d[5mC]*d[5mC]*dA*dA*dG*k[5mC]*kT*kA) [Compound 958414]”, for which the “YAP1 (% UTC)” value came to 73 % UTC.
On the same count and under the same terms, as for “958415 (antisense k[5mC]*kT*kG*dT*dG*dT*dA*dG*dG*d[5mC]*dT*dG*dA*k[5mC]*kT*kT) [Compound 958415]”, the figure is 16 % UTC; as for “958416 (antisense kG*k[5mC]*kT*dG*dT*dG*dT*dA*dG*dG*d[5mC]*dT*dG*kA*k[5mC]*kT) [Compound 958416]”, 36 % UTC; as for “958417 (antisense kA*k[5mC]*kG*dG*dA*dT*dA*dA*dA*dA*dA*dT*dT*kA*k[5mC]*kT) [Compound 958417]”, 85 % UTC.
The same measure, in the same setting: the figure for “958418 (antisense kA*kG*kA*dG*d[5mC]*d[5mC]*dT*dA*d[5mC]*d[5mC]*dT*dG*dA*k[5mC]*kA*kT) [Compound 958418]” is 47 % UTC; for “958419 (antisense kT*kA*kA*dG*dA*dG*d[5mC]*d[5mC]*dT*dA*d[5mC]*d[5mC]*dT*kG*kA*k[5mC]) [Compound 958419]” it is 68 % UTC.
Consider “958420 (antisense kT*kT*k[5mC]*dA*dT*dA*dA*dT*d[5mC]*dT*dG*dA*d[5mC]*kT*kA*kG) [Compound 958420]”, for which the “YAP1 (% UTC)” value turned out to be 66 % UTC.
Take “958421 (antisense k[5mC]*kT*k[5mC]*d[5mC]*dG*dT*dG*dG*dT*dG*dA*dT*d[5mC]*k[5mC]*k[5mC]*kA) [Compound 958421]”: the “YAP1 (% UTC)” value was 13 % UTC.
For “958422 (antisense kT*kT*kT*d[5mC]*dT*dT*dA*dA*d[5mC]*d[5mC]*dA*dG*d[5mC]*kG*kG*kA) [Compound 958422]”, the “YAP1 (% UTC)” value worked out at 15 % UTC.
On the same count and under the same terms, the figure for “958423 (antisense kG*kA*kT*d[5mC]*dA*dA*d[5mC]*dA*dT*dG*d[5mC]*dT*dA*kA*k[5mC]*kA) [Compound 958423]” is 51 % UTC.

The same data set, now with this note: Table 9; A-431 cells, 5,000 cells per well, free uptake, 2,000 nM, approximately 48 hours; RTS36584; normalized to RIBOGREEN; Yap1 mRNA relative to untreated control cells.
For the substance “958436 (antisense kT*k[5mC]*k[5mC]*d[5mC]*dT*dT*dG*dA*d[5mC]*dG*dG*dA*dG*kG*k[5mC]*k[5mC]) [Compound 958436]”, the “YAP1 (% UTC)” value was found to be 124 % UTC.
Still for that read-out and setting: the figure for “958441 (antisense kG*k[5mC]*kG*dA*d[5mC]*dG*dG*d[5mC]*dT*dG*d[5mC]*dG*dG*kG*k[5mC]*k[5mC]) [Compound 958441]” is 72 % UTC; for “958446 (antisense k[5mC]*k[5mC]*kT*dG*dA*d[5mC]*d[5mC]*d[5mC]*dA*dG*dG*d[5mC]*dG*kA*kG*k[5mC]) [Compound 958446]” it is 70 % UTC; for “958451 (antisense k[5mC]*kA*k[5mC]*dG*dA*dT*d[5mC]*dT*dG*dA*dT*dG*d[5mC]*k[5mC]*k[5mC]*kG) [Compound 958451]” it is 10 % UTC.
On the same count and under the same terms, as for “958456 (antisense kG*kG*k[5mC]*d[5mC]*dA*dG*dA*dG*dA*d[5mC]*dT*dA*d[5mC]*kT*k[5mC]*k[5mC]) [Compound 958456]”, the figure is 90 % UTC.
With “958461 (antisense kG*k[5mC]*k[5mC]*dG*dA*dA*dG*d[5mC]*dA*dG*dT*dT*d[5mC]*kT*kT*kG) [Compound 958461]”, the “YAP1 (% UTC)” value is on record as 79 % UTC.

The same data set, now with this note: Table 10; A-431 cells, 5,000 cells per well, free uptake, 2,000 nM oligonucleotide, approx. 48 hours; primer probe set RTS36584; Yap1 mRNA normalized to RIBOGREEN, percent of untreated control.
As for “958437 (antisense kA*kG*kG*d[5mC]*dA*d[5mC]*dT*d[5mC]*dG*dG*dA*d[5mC]*d[5mC]*kT*kG*k[5mC]) [Compound 958437]”, the “YAP1 (% UTC)” value is 84 % UTC.
On to “958442 (antisense kG*kG*kA*dG*dA*dA*dG*d[5mC]*dG*dG*d[5mC]*dG*dA*k[5mC]*kG*kG) [Compound 958442]”, for which the “YAP1 (% UTC)” value amounted to 21 % UTC.
On to “958447 (antisense kG*kT*kT*dG*dA*dG*dG*d[5mC]*dG*dG*d[5mC]*dG*dG*k[5mC]*kT*kG) [Compound 958447]”, for which the “YAP1 (% UTC)” value is reported as 48 % UTC.
With “958452 (antisense k[5mC]*kT*k[5mC]*d[5mC]*dA*dG*dG*dT*d[5mC]*dG*dG*dT*d[5mC]*kT*k[5mC]*k[5mC]) [Compound 958452]”, the “YAP1 (% UTC)” value came to 26 % UTC.
On the same count and under the same terms, as for “958457 (antisense kG*kT*k[5mC]*dG*dA*dA*dG*dA*dT*dG*d[5mC]*dT*dG*kA*kG*k[5mC]) [Compound 958457]”, the figure is 5 % UTC; as for “958462 (antisense kA*k[5mC]*kT*dG*dG*d[5mC]*dT*dA*d[5mC]*dG*d[5mC]*dA*dG*kG*kG*k[5mC]) [Compound 958462]”, 46 % UTC.

The same data set, now with this note: Table 11; A-431 cells, 5,000 cells per well, free uptake, 2,000 nM oligonucleotide, approx. 48 hours; primer probe set RTS36584; Yap1 mRNA normalized to RIBOGREEN, percent of untreated control.
Regarding “958438 (antisense k[5mC]*kG*k[5mC]*d[5mC]*d[5mC]*d[5mC]*dG*dG*d[5mC]*dT*d[5mC]*d[5mC]*dA*k[5mC]*kT*kG) [Compound 958438]”, the “YAP1 (% UTC)” value worked out at 61 % UTC.
Consider “958443 (antisense k[5mC]*kT*k[5mC]*d[5mC]*dA*d[5mC]*dG*dG*dG*d[5mC]*d[5mC]*dG*dA*kG*kG*kT) [Compound 958443]”, for which the “YAP1 (% UTC)” value is on record as 90 % UTC.
Regarding “958448 (antisense kG*k[5mC]*kG*dA*dA*dG*dG*d[5mC]*dG*dG*d[5mC]*dT*dG*k[5mC]*k[5mC]*k[5mC]) [Compound 958448]”, the “YAP1 (% UTC)” value is 86 % UTC.
Turning to “958453 (antisense kG*k[5mC]*k[5mC]*dT*d[5mC]*dA*dT*dG*dG*dG*d[5mC]*dA*d[5mC]*kG*kG*kT) [Compound 958453]”, the “YAP1 (% UTC)” value came out at 70 % UTC.
On to “958458 (antisense kG*kT*kT*d[5mC]*dA*dT*d[5mC]*dT*dG*dG*dG*dA*d[5mC]*kA*kG*k[5mC]) [Compound 958458]”, for which the “YAP1 (% UTC)” value was 12 % UTC.

Still in this data set, the particulars now being: Table 12; A-431 cells, 5,000 cells per well, free uptake, 2,000 nM modified oligonucleotide, approx. 48 hours; RTS36584; normalized to RIBOGREEN; Yap1 mRNA relative to untreated control cells.
Turning to “958439 (antisense kG*k[5mC]*kG*d[5mC]*d[5mC]*d[5mC]*d[5mC]*dG*dG*d[5mC]*dT*d[5mC]*d[5mC]*kA*k[5mC]*kT) [Compound 958439]”, the “YAP1 (% UTC)” value is 77 % UTC.
The same measure, in the same setting: the figure for “958444 (antisense kA*k[5mC]*kG*d[5mC]*d[5mC]*d[5mC]*d[5mC]*dG*dG*d[5mC]*dT*d[5mC]*d[5mC]*kA*k[5mC]*kG) [Compound 958444]” is 97 % UTC; for “958449 (antisense k[5mC]*k[5mC]*kG*dG*dA*d[5mC]*dG*dG*d[5mC]*dG*dG*dG*d[5mC]*k[5mC]*k[5mC]*kT) [Compound 958449]” it is 84 % UTC.
Same read-out and setting: as for “958454 (antisense kG*kG*kA*dA*dT*dG*dA*dG*d[5mC]*dT*d[5mC]*dG*dA*kA*k[5mC]*kA) [Compound 958454]”, the figure is 3 % UTC; as for “958459 (antisense k[5mC]*kT*kG*dA*dA*dG*d[5mC]*d[5mC]*dG*dA*dG*dT*dT*k[5mC]*kA*kT) [Compound 958459]”, 28 % UTC.

The data set is the same for the next values; noted with them: Table 13; A-431 cells, 5,000 cells per well, free uptake, 2,000 nM modified oligonucleotide, approx. 48 hours; RTS36584; normalized to RIBOGREEN; Yap1 mRNA relative to untreated control cells.
With “958440 (antisense kT*kG*k[5mC]*dG*d[5mC]*d[5mC]*d[5mC]*d[5mC]*dG*dG*d[5mC]*dT*d[5mC]*k[5mC]*kA*k[5mC]) [Compound 958440]”, the “YAP1 (% UTC)” value was 54 % UTC.
The same measure, in the same setting: as for “958445 (antisense kG*kG*k[5mC]*dT*dA*d[5mC]*dG*d[5mC]*d[5mC]*d[5mC]*dG*dG*dA*k[5mC]*kG*k[5mC]) [Compound 958445]”, the figure is 63 % UTC; as for “958450 (antisense kG*kG*kT*d[5mC]*dG*d[5mC]*d[5mC]*dG*d[5mC]*dG*dG*dG*dT*kG*k[5mC]*k[5mC]) [Compound 958450]”, 59 % UTC.
On to “958455 (antisense kA*kG*kA*dG*dG*dA*dA*dT*dG*dA*dG*d[5mC]*dT*k[5mC]*kG*kA) [Compound 958455]”, for which the “YAP1 (% UTC)” value is recorded as 43 % UTC.
On the same count and under the same terms, as for “958460 (antisense kT*k[5mC]*kG*d[5mC]*dA*dT*d[5mC]*dT*dG*dT*dT*dG*d[5mC]*kT*kG*k[5mC]) [Compound 958460]”, the figure is 52 % UTC.
